Results reported in ChEMBL document CHEMBL3991601, “The target landscape of clinical kinase drugs” (Science, 2017).
Calls of active or inactive are those of the source. For most assays here, no stated cut-off is given here; in the data, actives have a measured Kd and inactives only a lower limit.

Key:
[1] = target: Platelet-derived growth factor receptor beta (Homo sapiens, UniProt P09619)
[2] = target: T1, Serine/threonine-protein kinase 3 (Homo sapiens, UniProt Q13188)
T1 sequence (Q13188 whole entry): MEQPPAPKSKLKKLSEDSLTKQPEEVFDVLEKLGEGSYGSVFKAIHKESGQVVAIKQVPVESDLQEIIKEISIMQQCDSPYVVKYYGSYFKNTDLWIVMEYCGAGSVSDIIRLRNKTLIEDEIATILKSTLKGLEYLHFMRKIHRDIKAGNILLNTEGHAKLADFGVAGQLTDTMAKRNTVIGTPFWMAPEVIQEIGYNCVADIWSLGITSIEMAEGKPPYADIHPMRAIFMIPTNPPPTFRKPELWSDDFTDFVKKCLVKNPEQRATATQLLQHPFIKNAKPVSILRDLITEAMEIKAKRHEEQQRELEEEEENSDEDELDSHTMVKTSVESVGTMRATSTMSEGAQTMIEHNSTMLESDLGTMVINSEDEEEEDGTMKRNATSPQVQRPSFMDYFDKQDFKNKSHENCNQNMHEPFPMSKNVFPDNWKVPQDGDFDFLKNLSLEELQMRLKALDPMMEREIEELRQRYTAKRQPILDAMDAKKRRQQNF

[3] = target: Macrophage-stimulating protein receptor (Homo sapiens, UniProt Q04912)
Sequence of Macrophage-stimulating protein receptor (Q04912 25-304 limits assumed): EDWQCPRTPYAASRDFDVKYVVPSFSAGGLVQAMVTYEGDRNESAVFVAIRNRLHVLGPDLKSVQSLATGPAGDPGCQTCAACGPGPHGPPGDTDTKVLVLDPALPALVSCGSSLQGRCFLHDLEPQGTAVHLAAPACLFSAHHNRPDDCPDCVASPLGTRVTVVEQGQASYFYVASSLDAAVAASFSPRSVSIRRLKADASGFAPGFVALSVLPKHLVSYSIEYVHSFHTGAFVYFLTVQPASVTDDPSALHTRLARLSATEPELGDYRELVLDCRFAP
Sequence of Macrophage-stimulating protein receptor (Q04912 310-1400 limits assumed): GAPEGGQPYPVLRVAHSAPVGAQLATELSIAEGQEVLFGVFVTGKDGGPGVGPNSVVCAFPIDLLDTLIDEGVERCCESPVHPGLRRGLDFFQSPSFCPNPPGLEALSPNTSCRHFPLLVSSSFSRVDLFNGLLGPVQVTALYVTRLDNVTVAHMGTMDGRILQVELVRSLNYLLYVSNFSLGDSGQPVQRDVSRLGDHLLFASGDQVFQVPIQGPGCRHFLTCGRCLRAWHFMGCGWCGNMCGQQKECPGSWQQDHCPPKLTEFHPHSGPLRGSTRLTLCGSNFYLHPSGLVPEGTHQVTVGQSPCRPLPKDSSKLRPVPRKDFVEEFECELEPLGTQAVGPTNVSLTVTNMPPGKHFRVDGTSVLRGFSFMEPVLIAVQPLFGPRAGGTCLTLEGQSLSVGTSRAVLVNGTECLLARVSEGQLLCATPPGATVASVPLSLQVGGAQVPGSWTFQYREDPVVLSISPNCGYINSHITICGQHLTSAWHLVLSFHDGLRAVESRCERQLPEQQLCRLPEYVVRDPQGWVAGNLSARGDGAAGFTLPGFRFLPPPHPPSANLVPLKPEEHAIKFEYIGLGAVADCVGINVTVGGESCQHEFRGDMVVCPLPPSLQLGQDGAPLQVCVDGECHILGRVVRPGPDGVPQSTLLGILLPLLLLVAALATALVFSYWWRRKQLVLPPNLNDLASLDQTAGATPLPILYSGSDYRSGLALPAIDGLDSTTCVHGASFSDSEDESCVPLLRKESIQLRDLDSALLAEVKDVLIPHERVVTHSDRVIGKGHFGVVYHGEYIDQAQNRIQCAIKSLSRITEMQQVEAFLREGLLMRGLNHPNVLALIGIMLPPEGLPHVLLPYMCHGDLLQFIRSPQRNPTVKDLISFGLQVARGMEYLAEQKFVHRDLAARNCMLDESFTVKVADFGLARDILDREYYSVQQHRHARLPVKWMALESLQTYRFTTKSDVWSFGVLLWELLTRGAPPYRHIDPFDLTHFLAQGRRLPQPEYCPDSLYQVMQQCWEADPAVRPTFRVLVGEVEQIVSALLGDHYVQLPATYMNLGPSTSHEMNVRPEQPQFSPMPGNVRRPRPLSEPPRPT

[4] = target: Serine/threonine-protein kinase MRCK beta (Homo sapiens, UniProt Q9Y5S2)
Sequence of Serine/threonine-protein kinase MRCK beta (Q9Y5S2 whole entry, canonical isoform): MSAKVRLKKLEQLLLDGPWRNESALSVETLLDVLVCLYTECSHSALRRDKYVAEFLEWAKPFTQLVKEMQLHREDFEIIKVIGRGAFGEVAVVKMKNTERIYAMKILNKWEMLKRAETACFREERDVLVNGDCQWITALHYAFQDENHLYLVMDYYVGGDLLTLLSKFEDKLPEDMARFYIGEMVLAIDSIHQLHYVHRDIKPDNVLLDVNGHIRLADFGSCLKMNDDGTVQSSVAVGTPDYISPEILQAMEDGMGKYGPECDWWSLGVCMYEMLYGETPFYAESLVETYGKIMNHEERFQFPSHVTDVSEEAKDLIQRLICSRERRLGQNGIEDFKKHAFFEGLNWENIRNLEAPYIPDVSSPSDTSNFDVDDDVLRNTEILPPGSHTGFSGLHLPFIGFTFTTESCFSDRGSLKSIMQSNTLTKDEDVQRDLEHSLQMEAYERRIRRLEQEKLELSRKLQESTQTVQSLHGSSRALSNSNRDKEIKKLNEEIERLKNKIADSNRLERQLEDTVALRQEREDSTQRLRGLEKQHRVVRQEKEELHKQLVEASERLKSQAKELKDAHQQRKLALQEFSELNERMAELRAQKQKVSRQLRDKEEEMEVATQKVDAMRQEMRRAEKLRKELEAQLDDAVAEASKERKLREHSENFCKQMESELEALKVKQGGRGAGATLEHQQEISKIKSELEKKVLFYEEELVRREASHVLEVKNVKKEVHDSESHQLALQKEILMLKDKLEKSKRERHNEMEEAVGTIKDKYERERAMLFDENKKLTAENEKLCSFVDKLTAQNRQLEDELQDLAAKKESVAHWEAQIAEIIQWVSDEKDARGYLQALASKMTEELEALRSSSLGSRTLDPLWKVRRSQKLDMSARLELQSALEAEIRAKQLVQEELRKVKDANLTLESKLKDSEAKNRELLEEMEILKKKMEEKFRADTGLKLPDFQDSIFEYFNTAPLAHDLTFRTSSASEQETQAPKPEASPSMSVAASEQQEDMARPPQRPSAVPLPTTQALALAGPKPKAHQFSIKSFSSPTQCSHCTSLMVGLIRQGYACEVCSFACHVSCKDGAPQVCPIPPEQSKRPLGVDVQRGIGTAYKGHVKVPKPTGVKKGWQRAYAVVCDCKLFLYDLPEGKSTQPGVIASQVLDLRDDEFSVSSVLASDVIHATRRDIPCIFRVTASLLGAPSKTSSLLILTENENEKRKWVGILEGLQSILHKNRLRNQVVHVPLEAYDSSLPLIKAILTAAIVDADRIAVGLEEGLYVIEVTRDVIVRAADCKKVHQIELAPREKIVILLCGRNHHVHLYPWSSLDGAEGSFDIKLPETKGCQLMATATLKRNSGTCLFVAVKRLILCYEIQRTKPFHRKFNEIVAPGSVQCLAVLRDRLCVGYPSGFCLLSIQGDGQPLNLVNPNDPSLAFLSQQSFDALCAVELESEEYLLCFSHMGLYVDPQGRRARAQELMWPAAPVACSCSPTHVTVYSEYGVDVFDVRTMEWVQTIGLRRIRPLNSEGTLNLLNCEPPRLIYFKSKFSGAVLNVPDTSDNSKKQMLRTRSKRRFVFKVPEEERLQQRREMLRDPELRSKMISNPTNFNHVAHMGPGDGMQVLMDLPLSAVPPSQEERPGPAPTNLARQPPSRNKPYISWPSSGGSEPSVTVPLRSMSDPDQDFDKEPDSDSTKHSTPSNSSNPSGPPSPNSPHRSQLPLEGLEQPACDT

[5] = target: Casein kinase I isoform gamma-1 (Homo sapiens, UniProt Q9HCP0)
Sequence of Casein kinase I isoform gamma-1 (Q9HCP0 whole entry, canonical isoform): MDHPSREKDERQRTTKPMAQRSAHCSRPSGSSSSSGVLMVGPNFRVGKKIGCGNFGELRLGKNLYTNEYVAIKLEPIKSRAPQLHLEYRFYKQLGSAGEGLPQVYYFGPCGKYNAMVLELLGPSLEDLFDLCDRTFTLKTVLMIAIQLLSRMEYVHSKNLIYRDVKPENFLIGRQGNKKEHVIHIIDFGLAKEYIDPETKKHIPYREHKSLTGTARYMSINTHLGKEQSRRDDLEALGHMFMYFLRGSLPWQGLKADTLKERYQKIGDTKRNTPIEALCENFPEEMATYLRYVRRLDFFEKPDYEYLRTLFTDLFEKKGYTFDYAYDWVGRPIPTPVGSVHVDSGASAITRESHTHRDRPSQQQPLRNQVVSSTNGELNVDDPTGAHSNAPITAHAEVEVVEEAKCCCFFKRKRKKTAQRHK

TGF-beta receptor type-1 = target: T2, TGF-beta receptor type-1 (Homo sapiens, UniProt P36897)
T2 sequence (P36897 whole entry): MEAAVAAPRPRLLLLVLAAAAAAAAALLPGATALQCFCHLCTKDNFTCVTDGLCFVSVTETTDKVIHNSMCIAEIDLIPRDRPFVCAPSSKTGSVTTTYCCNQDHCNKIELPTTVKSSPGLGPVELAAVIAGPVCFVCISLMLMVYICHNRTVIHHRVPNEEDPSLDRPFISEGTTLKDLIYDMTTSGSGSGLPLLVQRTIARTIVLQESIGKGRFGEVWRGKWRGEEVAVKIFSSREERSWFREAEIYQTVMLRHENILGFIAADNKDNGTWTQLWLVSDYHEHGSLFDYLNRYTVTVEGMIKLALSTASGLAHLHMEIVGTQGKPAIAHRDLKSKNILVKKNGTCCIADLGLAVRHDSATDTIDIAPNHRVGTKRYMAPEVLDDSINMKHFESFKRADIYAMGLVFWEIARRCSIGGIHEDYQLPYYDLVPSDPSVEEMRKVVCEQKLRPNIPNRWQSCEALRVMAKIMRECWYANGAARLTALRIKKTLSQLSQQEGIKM

Pyridoxal kinase = target: T3, Pyridoxal kinase (Homo sapiens, UniProt O00764)
T3 sequence (O00764 whole entry): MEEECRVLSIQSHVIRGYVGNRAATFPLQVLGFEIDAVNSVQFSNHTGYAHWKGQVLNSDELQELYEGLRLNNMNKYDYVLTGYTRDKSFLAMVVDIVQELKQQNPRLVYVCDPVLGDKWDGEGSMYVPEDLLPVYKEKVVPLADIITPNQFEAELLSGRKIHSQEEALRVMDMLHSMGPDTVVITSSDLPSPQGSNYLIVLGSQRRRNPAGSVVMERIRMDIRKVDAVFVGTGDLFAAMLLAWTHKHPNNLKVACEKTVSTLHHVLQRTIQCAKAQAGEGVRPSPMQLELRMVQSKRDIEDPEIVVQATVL

[6] = target: T4, General transcription and DNA repair factor IIH helicase subunit XPD (Homo sapiens, UniProt P18074); details: read-out: Kd apparent; k-562, colo 205, sk-n-be(2) and mv-4-11
T4 sequence (P18074 whole entry): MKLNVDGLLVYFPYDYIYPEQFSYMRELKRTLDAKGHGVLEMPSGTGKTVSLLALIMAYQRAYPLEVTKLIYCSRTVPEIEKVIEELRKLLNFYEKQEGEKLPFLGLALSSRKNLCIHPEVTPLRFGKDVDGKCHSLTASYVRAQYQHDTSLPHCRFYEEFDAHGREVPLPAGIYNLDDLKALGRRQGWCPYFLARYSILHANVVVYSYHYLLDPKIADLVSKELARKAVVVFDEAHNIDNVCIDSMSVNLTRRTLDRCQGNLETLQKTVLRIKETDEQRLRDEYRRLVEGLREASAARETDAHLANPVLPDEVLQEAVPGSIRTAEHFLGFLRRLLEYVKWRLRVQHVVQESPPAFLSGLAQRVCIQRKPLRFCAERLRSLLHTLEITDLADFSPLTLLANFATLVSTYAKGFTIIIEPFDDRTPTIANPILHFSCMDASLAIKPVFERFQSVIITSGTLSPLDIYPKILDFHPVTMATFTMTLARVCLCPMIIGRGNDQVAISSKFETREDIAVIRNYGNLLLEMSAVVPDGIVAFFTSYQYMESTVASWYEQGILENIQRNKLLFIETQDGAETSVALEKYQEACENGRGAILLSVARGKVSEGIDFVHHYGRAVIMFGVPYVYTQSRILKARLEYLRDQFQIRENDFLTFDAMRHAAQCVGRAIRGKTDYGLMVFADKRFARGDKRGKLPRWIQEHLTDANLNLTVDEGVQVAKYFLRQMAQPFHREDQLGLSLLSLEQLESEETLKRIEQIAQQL

[7] = target: Glycogen synthase kinase-3 alpha (Homo sapiens, UniProt P49840)
Sequence of Glycogen synthase kinase-3 alpha (P49840 whole entry, the tested form may be a part): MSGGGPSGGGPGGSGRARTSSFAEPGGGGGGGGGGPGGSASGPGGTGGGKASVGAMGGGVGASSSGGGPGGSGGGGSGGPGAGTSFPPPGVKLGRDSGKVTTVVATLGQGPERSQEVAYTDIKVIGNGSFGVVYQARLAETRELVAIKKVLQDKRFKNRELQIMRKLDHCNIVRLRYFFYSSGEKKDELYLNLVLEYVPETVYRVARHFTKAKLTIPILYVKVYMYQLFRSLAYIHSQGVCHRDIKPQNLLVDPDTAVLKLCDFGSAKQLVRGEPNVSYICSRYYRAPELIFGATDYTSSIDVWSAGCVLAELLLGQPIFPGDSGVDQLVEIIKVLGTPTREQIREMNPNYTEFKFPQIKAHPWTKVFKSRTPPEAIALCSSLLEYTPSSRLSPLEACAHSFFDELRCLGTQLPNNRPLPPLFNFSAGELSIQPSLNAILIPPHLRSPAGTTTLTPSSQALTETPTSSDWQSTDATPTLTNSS

LIM domain kinase 1 = LIM domain kinase 1 (Homo sapiens, UniProt P53667)
[8] = target: T5, EKC/KEOPS complex subunit TP53RK (Homo sapiens, UniProt Q96S44)
T5 sequence (Q96S44 whole entry): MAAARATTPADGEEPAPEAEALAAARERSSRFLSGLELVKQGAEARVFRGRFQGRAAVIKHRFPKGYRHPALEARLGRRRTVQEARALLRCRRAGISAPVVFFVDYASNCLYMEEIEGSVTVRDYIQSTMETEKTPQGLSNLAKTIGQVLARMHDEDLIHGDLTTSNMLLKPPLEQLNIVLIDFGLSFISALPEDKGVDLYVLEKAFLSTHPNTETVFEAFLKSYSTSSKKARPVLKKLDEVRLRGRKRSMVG

Sequence of Platelet-derived growth factor receptor beta (P09619 whole entry): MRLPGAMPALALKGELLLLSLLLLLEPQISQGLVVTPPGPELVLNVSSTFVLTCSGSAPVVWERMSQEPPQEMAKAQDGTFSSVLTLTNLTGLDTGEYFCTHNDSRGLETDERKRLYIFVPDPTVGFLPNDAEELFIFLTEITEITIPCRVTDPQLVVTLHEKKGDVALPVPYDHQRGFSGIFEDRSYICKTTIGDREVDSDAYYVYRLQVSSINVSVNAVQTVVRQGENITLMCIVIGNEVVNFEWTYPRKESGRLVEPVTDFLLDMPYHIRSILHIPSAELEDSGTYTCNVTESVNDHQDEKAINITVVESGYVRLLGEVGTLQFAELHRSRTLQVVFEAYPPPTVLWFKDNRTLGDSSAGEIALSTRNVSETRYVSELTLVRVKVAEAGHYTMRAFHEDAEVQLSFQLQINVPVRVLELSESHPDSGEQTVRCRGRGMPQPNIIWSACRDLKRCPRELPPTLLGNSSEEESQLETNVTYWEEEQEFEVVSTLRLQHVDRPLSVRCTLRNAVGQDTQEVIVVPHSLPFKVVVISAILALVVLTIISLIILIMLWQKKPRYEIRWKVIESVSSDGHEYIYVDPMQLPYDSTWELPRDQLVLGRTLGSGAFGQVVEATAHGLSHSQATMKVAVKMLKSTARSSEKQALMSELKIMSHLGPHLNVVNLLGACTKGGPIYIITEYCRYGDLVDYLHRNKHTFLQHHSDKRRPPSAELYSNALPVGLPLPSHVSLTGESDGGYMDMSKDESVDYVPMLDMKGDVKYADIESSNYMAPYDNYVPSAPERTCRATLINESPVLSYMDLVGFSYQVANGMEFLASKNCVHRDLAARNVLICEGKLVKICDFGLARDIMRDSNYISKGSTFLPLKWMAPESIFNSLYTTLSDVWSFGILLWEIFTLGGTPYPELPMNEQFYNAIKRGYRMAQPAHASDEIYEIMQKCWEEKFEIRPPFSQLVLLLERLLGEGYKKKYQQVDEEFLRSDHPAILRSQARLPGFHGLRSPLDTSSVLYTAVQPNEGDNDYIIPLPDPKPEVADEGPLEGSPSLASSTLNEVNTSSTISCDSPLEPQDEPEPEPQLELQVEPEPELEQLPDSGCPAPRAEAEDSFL

| Kd [1] | Kd [2] | Kd [3] | Kd [4] | Kd [5] | Kd (TGF-beta receptor type-1) | Kd (Pyridoxal kinase) | Kd [6] | Kd [7] | Kd (LIM domain kinase 1) | Kd [8] | SMILES |
| --- | --- | --- | --- | --- | --- | --- | --- | --- | --- | --- | --- |
| > 30 µM (inactive) | > 30 µM (inactive) | > 30 µM (inactive) | > 30 µM (inactive) | > 30 µM (inactive) | > 30 µM (inactive) | > 30 µM (inactive) | > 30 µM (inactive) | > 30 µM (inactive) | > 30 µM (inactive) | > 30 µM (inactive) | O=c1sn(-c2cccc3ccccc23)c(=O)n1Cc1ccccc1 [TIDEGLUSIB] |
| > 30 µM (inactive) | > 30 µM (inactive) | > 30 µM (inactive) | > 30 µM (inactive) | > 30 µM (inactive) | > 30 µM (inactive) | > 30 µM (inactive) | > 30 µM (inactive) | > 30 µM (inactive) | > 30 µM (inactive) | > 30 µM (inactive) | Cn1cc(-c2ccc3nnc(C(F)(F)c4ccc5ncccc5c4)n3n2)cn1 [JNJ-38877605] |
| > 30 µM (inactive) | > 30 µM (inactive) | > 30 µM (inactive) | > 30 µM (inactive) | > 30 µM (inactive) | > 30 µM (inactive) | > 30 µM (inactive) | > 30 µM (inactive) | > 30 µM (inactive) | > 30 µM (inactive) | > 30 µM (inactive) | C[C@@H]1CN(Cc2ccc(F)cc2)[C@@H](C)CN1C(=O)c1cc2c(C(=O)C(=O)N(C)C)cn(C)c2cc1Cl [TALMAPIMOD] |
| 2.67 µM (active) | > 30 µM (inactive) | > 30 µM (inactive) | > 30 µM (inactive) | > 30 µM (inactive) | > 30 µM (inactive) | > 30 µM (inactive) | > 30 µM (inactive) | 5.19 µM (active) | > 30 µM (inactive) | > 30 µM (inactive) | C1=C/COCc2cc(ccc2OCCN2CCCC2)Nc2nccc(n2)-c2cccc(c2)COC/1 [PACRITINIB] |

Second part, the compound before the results:

| SMILES | Kd [1] | Kd [2] | Kd [3] | Kd [4] | Kd [5] | Kd (TGF-beta receptor type-1) | Kd (Pyridoxal kinase) | Kd [6] | Kd [7] | Kd (LIM domain kinase 1) | Kd [8] |
| --- | --- | --- | --- | --- | --- | --- | --- | --- | --- | --- | --- |
| CNS(=O)(=O)Nc1nccc(Cc2c(C)c3ccc(Oc4ncccn4)cc3oc2=O)c1F [AVUTOMETINIB] | > 30 µM (inactive) | > 30 µM (inactive) | > 30 µM (inactive) | > 30 µM (inactive) | > 30 µM (inactive) | > 30 µM (inactive) | > 30 µM (inactive) | > 30 µM (inactive) | > 30 µM (inactive) | > 30 µM (inactive) | > 30 µM (inactive) |
| O=C(O)[C@]1(Cc2cccc(Nc3nccs3)n2)CC[C@@H](Oc2cccc(Cl)c2F)CC1 [MK-5108] | > 30 µM (inactive) | 2.27 µM (active) | > 30 µM (inactive) | > 30 µM (inactive) | > 30 µM (inactive) | 1.7 µM (active) | > 30 µM (inactive) | > 30 µM (inactive) | > 30 µM (inactive) | 5.09 µM (active) | > 30 µM (inactive) |
| CC(=O)Nc1cccc(-n2c(=O)n(C3CC3)c(=O)c3c(Nc4ccc(I)cc4F)n(C)c(=O)c(C)c32)c1 [TRAMETINIB] | > 30 µM (inactive) | > 30 µM (inactive) | > 30 µM (inactive) | > 30 µM (inactive) | > 30 µM (inactive) | > 30 µM (inactive) | > 30 µM (inactive) | > 30 µM (inactive) | > 30 µM (inactive) | > 30 µM (inactive) | > 30 µM (inactive) |
| CO[C@H]1C[C@@H]2CC[C@@H](C)[C@@](O)(O2)C(=O)C(=O)N2CCCC[C@H]2C(=O)O[C@H]([C@H](C)C[C@@H]2CC[C@@H](OCCO)[C@H](OC)C2)CC(=O)[C@H](C)/C=C(\C)[C@@H](O)[C@@H](OC)C(=O)[C@H](C)C[C@H](C)/C=C/C=C/C=C/1C [EVEROLIMUS] | > 30 µM (inactive) | > 30 µM (inactive) | > 30 µM (inactive) | > 30 µM (inactive) | > 30 µM (inactive) | > 30 µM (inactive) | > 30 µM (inactive) | > 30 µM (inactive) | > 30 µM (inactive) | > 30 µM (inactive) | > 30 µM (inactive) |
| C[C@@H](Nc1cc(F)cc(F)c1)c1cc(C(=O)N(C)C)cc2c(=O)cc(N3CCOCC3)oc12 [AZD-8186] | > 30 µM (inactive) | > 30 µM (inactive) | > 30 µM (inactive) | > 30 µM (inactive) | > 30 µM (inactive) | > 30 µM (inactive) | > 30 µM (inactive) | > 30 µM (inactive) | > 30 µM (inactive) | > 30 µM (inactive) | > 30 µM (inactive) |
| CN1N=C(N)c2cn([C@@H]3O[C@H](COP(=O)(O)O)[C@@H](O)[C@H]3O)c3ncnc1c23 [TRICIRIBINE PHOSPHATE] | > 30 µM (inactive) | > 30 µM (inactive) | > 30 µM (inactive) | > 30 µM (inactive) | > 30 µM (inactive) | > 30 µM (inactive) | > 30 µM (inactive) | > 30 µM (inactive) | > 30 µM (inactive) | > 30 µM (inactive) | > 30 µM (inactive) |
| C=CC(=O)N1CCC(Oc2cc3c(Nc4ccc(Cl)c(Cl)c4F)ncnc3cc2OC)CC1 [POZIOTINIB] | > 30 µM (inactive) | > 30 µM (inactive) | > 30 µM (inactive) | > 30 µM (inactive) | > 30 µM (inactive) | > 30 µM (inactive) | > 30 µM (inactive) | > 30 µM (inactive) | > 30 µM (inactive) | > 30 µM (inactive) | > 30 µM (inactive) |
| CC(C)Nc1cc(-c2c[nH]c(C(=O)N[C@H](CO)c3cccc(Cl)c3)c2)c(Cl)cn1 [ULIXERTINIB] | > 30 µM (inactive) | > 30 µM (inactive) | > 30 µM (inactive) | > 30 µM (inactive) | > 30 µM (inactive) | > 30 µM (inactive) | > 30 µM (inactive) | > 30 µM (inactive) | > 30 µM (inactive) | > 30 µM (inactive) | > 30 µM (inactive) |
| CN1CC[C@@H](c2c(O)cc(O)c3c(=O)cc(-c4ccccc4Cl)oc23)[C@@H]1CO | > 30 µM (inactive) | > 30 µM (inactive) | > 30 µM (inactive) | > 30 µM (inactive) | > 30 µM (inactive) | > 30 µM (inactive) | > 30 µM (inactive) | > 30 µM (inactive) | > 30 µM (inactive) | > 30 µM (inactive) | > 30 µM (inactive) |
